Consider two molecules from PMC7655722 (Organic letters, 2020).

One data set relates to P335. As to conditions: P335 ref 6; cited from earlier work.
The subject of data set [1] is stem-like cells with epithelial-mesenchymal transition (EMT) properties. As to conditions: cited from earlier work.
The test system of the next data set is MDA-MB-231. Briefly: cells. In kind it is cell-based. As to conditions: for IC50: Homo sapiens.
The nature of another data set: in vitro. In kind it is cell-based. As to conditions: human.
Another data set relates to MCF10A. Briefly: cells. As to conditions: Homo sapiens, MCF-10A, read-out: IC50, cell viability. Type of data set: cell-based.
Data set [2] concerns cancer stem cells (CSCs) in MDA-MB-231 cell line. As to conditions: MDA-MB-231 cell line ref 12; cited from earlier work.
Data set [3] concerns chronic lymphocytic leukemia (CLL). As to conditions: chronic lymphocytic leukemia (CLL) ref 8; cited from earlier work.
In a further data set the test system is glioblastoma Hs683. As to conditions: glioblastoma Hs683 ref 9, 10; cited from earlier work.

Read-outs that look alike come from different tables or passages of the source.

For the molecule `CC(C)=C[C@H]1C[C@H](C)[C@]2(CC[C@]3(C)C[C@H]4[C@H](C(=O)C[C@@]4(C)O)/C(C=O)=C\C[C@H]32)O1` [OpA, ophiobolin A], the concentration for half-maximal inhibition (IC50) (usually the midpoint of a concentration-inhibition curve) with P335 is 63 nM; with MDA-MB-231 (MDA-MB-231, read-out: IC50, cell viability), 69 ± 24 nM; in the data set on MDA-MB-231 (MDA-MB-231, read-out: cytotoxicity (IC50) as quoted in text) it was roughly 69 nM; in the data set “in vitro” it was roughly 200 nM; with MCF10A it was 198 ± 76 nM; in data set [3], 1 nM. For the same molecule, in the data set with glioblastoma Hs683, the half-inhibitory concentration (IC50) is 620 nM. Further, in data set [1], the “induction of cell death in stem-like cells with EMT properties” value is listed as “specifically induces cell death”. Besides, the “selectivity between cancer vs non-cancer cell line” value in the data set with MDA-MB-231 (MDA-MB-231 vs MCF-10A) is reported as ~ 3 fold. In addition, the “effect on CD44/CD24-positive population” value in data set [2] is “significantly reducing the CD44/CD24-positive population”.

For the molecule `CC(C)=CCC[C@H](C)[C@@]1(O)CC[C@]2(C)C[C@H]3[C@H](C(=O)C[C@@]3(C)O)/C(C=O)=C\C[C@H]21` [compound 2], the “effect on CD44/CD24-positive population” value in data set [2] is given as “significantly reducing the CD44/CD24-positive population”.
